Patent US6673804B1, “Sulfonamide derivatives” (Sankyo Company, Limited, priority 1998, dated 2004)
One block for each molecule: values may come before it.

What was measured:
aglycanase = test: Aglycanase inhibition test (in vitro); assay type: biochemical; details: aglycanase from bovine nasal septum cartilage culture, aglycan-containing polyacrylamide particles, 37° C. for 2.5 hours
Experimental: An aglycanase inhibition test can be conducted by, for example, measuring aglycanase activity in the presence or absence of a test compound according to the method of Nagase et al. (H. Nagase and J. F. Woessner, Analytical Biochemistry, vol. 107, 385-392, 1980).
The enzyme used for measurement of aglycanase activity can be extracted from mammalian cartilage tissue itself or from its cultured medium. Extraction is performed by combining various types of chromatography, and the activity of aglycanase in the purification process can be detected by adding substrate (aglycan) to an eluted fraction and testing whether or not the substrate is cleaved. Whether or not the substrate is cleaved can be determined by performing imnunoblotting for the reaction liquid using an antibody that binds to the epitope, CNLeNIEGE, that is produced by cleavage of aglycan (substrate) by aglycanase (enzyme). It should be noted that antibody that binds to CNLeNIEGE can be prepared according to the method of Sandy et al. (J. D. Sandy et al., Journal of Biological Chemistry, vol. 270, 2550-2556, 1995).
Bovine nasal septum cartilage was cultured for 7 days at 37° C. in the presence of 1 μm retinoic acid in DMEM [containing 20 mM N-2-hydroxyethyl-piperazine-N′-2-ethane sulfonic acid (HEPES), 0.005% bovine serum albumin (BSA), 5 μg/ml insulin-transferrin sodium selenite media supplement, 1% penicillin and 1% streptomycin] while changing the medium once a day. The culture liquid collected from day 3 to day 7 was subjected to chromatography [carrier: Q-sepharose (Pharmacia), mobile phase: 20 mM Tris-HCl buffer (pH 7.2) containing 5 mM calcium chloride] and the fraction that passed through the column was collected. This was then subjected to additional chromatography [carrier: Zn-chelating sepharose (Pharmacia), mobile phase: Tris-HCl buffer (pH 7.2) containing 5 mM calcium chloride and 0.5 M sodium chloride], followed by elution using imidazole as the mobile phase. The fraction of the resulting eluted fractions that was confirmed to have aglycanase activity was collected. Moreover, this was subjected to additional chromatography [carrier: LCA-agarose (Honen Corporation), mobile phase: 20 mM aqueous solution of 2-(N-morpholino)ethanesulfonic acid (pH 6.5) containing 5 mM calcium chloride and 0.25 M sodium chloride], followed by elution using 2-methylmannopyranoside as the mobile phase. The fraction of the resulting eluted fractions that was confirmed to have aglycanase activity was collected, and this fraction was used as the enzyme liquid for measurement of aglycanase activity.
Separate from the above, antibody that binds with CNLeNIEGE was prepared according to the method of Sandy et al. (J. D. Sandy et al., Journal of Biological Chemistry, vol. 270, 2550-2556, 1995), and this antibody was used in immunoblotting to detect aglycanase activity in the above-mentioned purification process of the aglycanase. Immunoblotting was performed in accordance with conventional methods.
Measurement of activity was performed using a modification of the protease activity measurement method that uses polyacrylamide particles of Nagase et al. (H. Nagase and J. F. Woessner, Analytical Biochemistry, vol. 107, 385-392, 1980).
The aglycan used for the substrate was isolated from bovine nasal septum cartilage in accordance with cesium chloride sedimentation equilibrium centrifugation (New Biochemical Experimentation Course, 3, Saccharides II, 4-7, Tokyo Kagaku Dojin Publishing, 1991). By using this aglycan, polyacrylamide particles containing aglycan were prepared in accordance with the method of Nagase et al. (H. Nagase and J. F. Woessner, Analytical Biochemistry, vol. 107, 385-392, 1980). Namely, aglycan (dry weight: 480 mg) was first added to 28 ml of liquid A [1 M Tris-HCl buffer (pH 8.5) containing 0.2% N,N,N′,N′-tetramethylethylenediamine (TEMED)] and the mixture was stirred at 4° C. for 1 hour. […]

MMP-13 = target: T1, MMP-13 (Homo sapiens, UniProt P45452); test: MMP-13 inhibition test (in vitro); assay type: biochemical; details: recombinant active MMP-13, fluorescent substrate 20 μM, 1 hour at 37° C.
T1 construct: made in house; host or cells: COS-1 cells (vector pcDL-SRα296, culture supernatant)
From the text: MMP-13 exists in chondrocytes and chondrosarcoma cells, and the DNA sequence corresponding to the amino acid sequence of its precursor (proMMP-13) has been reported by Freije et al. (Freije, J. M. P., et al., J. Biol. Chem., vol. 269, 16766-16773, 1994). Therefore, proMMP-13 can be expressed by acquiring cDNA of proMMP-13 from chondrocytes and chondrosarcoma cells in accordance with conventional methods, by incorporating this into an ordinarily used vector, and by introducing this vector into suitable cells to transform the cells.
An MMP-13 inhibition test can be conducted by, for example, treating recombinant proMMP-13 obtained in the above manner with p-aminophenyl-mercuric(II) acetate (APMA) to convert proMMP-13 to active MMP-13, and then using this as enzyme to measure MMP-13 activity in the presence or absence of a test compound using a fluorescent substrate.
mRNA was isolated from human chondrosarcoma HCS-2/8, which is a chondrosarcoma cell line established by Takigawa et al. (Jpn. J. Cancer. Res., vol. 85, 364-371, 1994), in accordance with conventional methods, and cDNA of proMMP-13 was acquired by reverse transcription polymerase chain reaction (RT-PCR). 5′-[…]-3′ (Sequence No. 1 of the Sequence listing) and 5′-[…]-3′ (Sequence No. 2 of the Sequence listing), which contain the restriction enzyme cleavage site sacI or KpnI (portions indicated by underlining) were used for primers. […]
This enzyme solution and substrate (20 μM) were added to 50 mM Tris-HCl buffer (pH 7.5) containing 0.15 M sodium chloride, 10 mM calcium chloride, 0.05% Brij 35 and 0.02% sodium azide to bring the final volume to 0.1 ml, followed by reacting for 1 hour at 37° C. After stopping the reaction by adding 0.1 ml of 3% acetic acid, enzyme activity was determined by measuring with a fluorophotometer (Labsystems Fluoroskan II) at an excitation wavelength of 330 nm and emission wavelength of 390 nm. […]

Compound: CN(C(CCn1c(=O)[nH]c2ccccc2c1=O)C(=O)NO)S(=O)(=O)c1ccc(Oc2ccccc2)cc1 (racemic) [Example 6, (±)-N-Hydroxy-Nα-methyl-Nα-(4-phenoxybenzenesulfonyl)-2-[2-(quinazolin-2,4-dione-3-yl)ethyl]glycinamide]
IC50 (aglycanase): 7 nM

Compound: Cc1[nH]c(=O)n(CCC(C(=O)NO)N(C)S(=O)(=O)c2ccc(Oc3ccccc3)cc2)c(=O)c1C (racemic) [Example 18, (±)-2-[2-(5,6-Dimethylpyrimidin-2,4-dione-3-yl)ethyl]-N-hydroxy-Nα-methyl-Nα-(4-phenoxybenzenesulfonyl)glycinamide]
IC50 (aglycanase): 7.6 nM

Compound: CN(C(CCn1c(=O)[nH]c2ccsc2c1=O)C(=O)NO)S(=O)(=O)c1ccc(Oc2ccccc2)cc1 (racemic) [Example 42, (±)-N-Hydroxy-Nα-methyl-Nα-(4-phenoxybenzensulfonyl)-2-[2-(thieno[3,2-d]pyrimidin-2,4-dione-3-yl)ethyl]glycinamide]
IC50 (MMP-13): 0.47 nM
IC50 (aglycanase): 5.4 nM

Compound: CN(C(CCN1C(=O)c2cc(Cl)c(Cl)cc2C1=O)C(=O)NO)S(=O)(=O)c1ccc(Oc2ccccc2)cc1 (racemic) [Example 84, (±)-2-[2-(4,5-Dichlorophthalimido)ethyl]-N-hydroxy-Nα-methyl-Nα-(4-phenoxybenzenesulfonyl)glycinamide]
melting point: 155 to 156 °C

Compound: Cc1ccc2c(c1)C(=O)N(CCC(C(=O)NO)N(C)S(=O)(=O)c1ccc(Oc3ccccc3)cc1)C2=O (racemic) [Example 86, (±)-N-Hydroxy-Nα-methyl-2-[2-(4-methylphthalimido)ethyl]-Nα-(4-phenoxybenzenesulfonyl)glycinamide]
melting point: 157 to 158 °C

Compound: CN([C@H](CCN1C(=O)c2ccccc2C1=O)C(=O)NO)S(=O)(=O)c1ccc(Oc2ccccc2)cc1 [Example 72, N-Hydroxy-Nα-methyl-Nα-(4-phenoxybenzensulfonyl)-2(R)-(2-phthalimidoethyl)glycinamide]
IC50 (aglycanase): 4.9 nM

The remaining lines, values ahead:

IC50 (MMP-13): 0.43 nM
IC50 (aglycanase): 3.7 nM
Compound: CN([C@H](CCn1c(=O)[nH]c2ccccc2c1=O)C(=O)NO)S(=O)(=O)c1ccc(Oc2cccc(Cl)c2)cc1 [Example 139, Nα-[4-(3-Chlorophenoxy)benzenesulfonyl]-N-hydroxy-Nα-methyl-2(R)-[2-(quinazolin-2,4-dione-3-yl)ethyl]glycinamide]

IC50 (MMP-13): 0.32 nM
IC50 (aglycanase): 2.2 nM
Compound: CN([C@H](CCn1c(=O)[nH]c2ccsc2c1=O)C(=O)NO)S(=O)(=O)c1ccc(Oc2cccc(Cl)c2)cc1 [Example 140, Nα-[4-(3-Chlorophenoxy)benzenesulfonyl]-N-hydroxy-Nα-methyl-2(R)-[2-(thieno[3,2-d]pyrimidin-2,4-dione-3-yl)ethyl]glycinamide]

IC50 (aglycanase): 2.9 nM
Compound: CN([C@H](CCN1C(=O)c2ccccc2C1=O)C(=O)NO)S(=O)(=O)c1ccc(Oc2cccc(Cl)c2)cc1 [Example 141, Nα-[4-(3-Chlorophenoxy)benzenesulfonyl]-N-hydroxy-Nα-methyl-2(R)-(2-phthalimidoethyl)glycinamide]
